In US12655174B2, “Adenosine A3 receptor agonists, preparation methods and uses thereof” (ZHEJIANG VIMGREEN PHARMACEUTICALS, LTD., priority 2020, dated 2026):

Assay: Pharmacokinetic test of compound in SD rat
Type: in vivo
Conditions: SD rats, intragastric administration (IG), cassette dosing
Description: Example 28: Pharmacokinetic Test of Compound in SD Rat
The animal species used in this experiment were SD rats. There were 3 animals per group. The rats were dosed in cassette format, i.e., multiple (1-6) different compounds were dosed simultaneously to the same group of the SD rats. The vehicle used for the drug was 5% DMSO+5% Solutl+90% ([…] methylcellulose M450), and the administration route was intragastric administration (IG).

Row | Structure (SMILES) | AUC_D
1 | [2H]C([2H])([2H])NC(=O)[C@H]1O[C@@H](n2cnc3c(NCc4ccccc4)nc(-c4cncc(OC)c4)nc32)[C@H](O)[C@@H]1O [compound 33, (2S,3S,4R,5R)-5-(6-(benzylamino)-2-(5-methoxypyridin-3-yl)-9H-purin-9-yl)-3,4-dihydroxyl-N-(methyl-d3)-tetrahydrofuran-2-formamide] | 1578.00 kg·ng·h/mL/mg
2 | [2H]C([2H])([2H])NC(=O)[C@H]1O[C@@H](n2cnc3c(NCc4cccc(C)c4)nc(-c4cncc(Cl)c4)nc32)[C@H](O)[C@@H]1O [compound 164, (2S,3S,4R,5R)-5-(6-(m-methylphenylmethylamino)-2-(5-chloropyridin-3-yl)-9H-purin-9-yl)-3,4-dihydroxyl-N-(methyl-d3)-tetrahydrofuran-2-formamide] | 845.57 kg·ng·h/mL/mg
3 | [2H]C([2H])([2H])NC(=O)[C@H]1O[C@@H](n2cnc3c(NCc4ccccc4)nc(-c4cncc(F)c4)nc32)[C@H](O)[C@@H]1O [compound 32, (2S,3S,4R,5R)-5-(6-(benzylamino)-2-(5-fluoropyridin-3-yl)-9H-purin-9-yl)-3,4-dihydroxyl-N-(methyl-d3)-tetrahydrofuran-2-formamide] | 1384.00 kg·ng·h/mL/mg
4 | [2H]C([2H])([2H])NC(=O)[C@H]1O[C@@H](n2cnc3c(OCc4ccccc4)nc(-c4cncc(Cl)c4)nc32)[C@H](O)[C@@H]1O [compound 323, (2S,3S,4R,5R)-5-(6-(benzyloxy)-2-(5-chloropyridin-3-yl)-9H-purin-9-yl)-3,4-dihydroxyl-N-(methyl-d3)-tetrahydrofuran-2-formamide] | 1309.00 kg·ng·h/mL/mg
5 | [2H]C([2H])([2H])NC(=O)[C@H]1O[C@@H](n2cnc3c(NCc4cccc(C)c4)nc(-c4cncc(F)c4)nc32)[C@H](O)[C@@H]1O [compound 162, (2S,3S,4R,5R)-5-(2-(5-fluoropyridin-3-yl)-6-((3-methylbenzyl)amino)-9H-purin-9-yl)-3,4-dihydroxyl-N-(methyl-d3)-tetrahydrofuran-2-carboxamide] | 1156.15 kg·ng·h/mL/mg
6 | [2H]C([2H])([2H])NC(=O)[C@H]1O[C@@H](n2cnc3c(NCc4cc(Cl)ccn4)nc(-c4cncc(Cl)c4)nc32)[C@H](O)[C@@H]1O [compound 214] | 765.47 kg·ng·h/mL/mg
7 | [2H]C([2H])([2H])NC(=O)[C@H]1O[C@@H](n2cnc3c(NCc4ccccc4)nc(-c4cncc(C)c4)nc32)[C@H](O)[C@@H]1O [compound 16, (2S,3S,4R,5R)-5-(6-(benzylamino)-2-(5-methylpyridin-3-yl)-9H-purin-9-yl)-3,4-dihydroxyl-N-(methyl-d3)-tetrahydrofuran-2-formamide] | 1291.00 kg·ng·h/mL/mg
8 | [2H]C([2H])([2H])NC(=O)[C@H]1O[C@@H](n2cnc3c(NCc4cccnc4)nc(-c4cncc(Cl)c4)nc32)[C@H](O)[C@@H]1O [compound 235, (2S,3S,4R,5R)-5-(2-(5-chloropyridin-3-yl)-6-(pyridin-3-ylmethylamino)-9H-purin-9-yl)-3,4-dihydroxyl-N-(methyl-d3)-tetrahydrofuran-2-carboxamide] | 1456.00 kg·ng·h/mL/mg
9 | [2H]C([2H])([2H])NC(=O)[C@H]1O[C@@H](n2cnc3c(NCc4ccccc4)nc(-c4cccnc4)nc32)[C@H](O)[C@@H]1O [compound 10, (2S,3S,4R,5R)-5-(6-(benzylamino)-2-(pyridin-3-yl)-9H-purin-9-yl)-3,4-dihydroxyl-N-(methyl-d3)-tetrahydrofuran-2-formamide] | 146.00 kg·ng·h/mL/mg
10 | [2H]C([2H])([2H])NC(=O)[C@H]1O[C@@H](n2cnc3c(NCc4cccc(F)c4)nc(-c4cncc(Cl)c4)nc32)[C@H](O)[C@@H]1O [compound 321] | 1167.46 kg·ng·h/mL/mg
11 | [2H]C([2H])([2H])NC(=O)[C@H]1O[C@@H](n2cnc3c(NCc4ccc(Cl)cc4)nc(-c4cncc(Cl)c4)nc32)[C@H](O)[C@@H]1O [compound 168, (2S,3S,4R,5R)-5-(6-(4-chlorobenzylamino)-2-(5-chloropyridin-3-yl)-9H-purin-9-yl)-3,4-dihydroxyl-N-(methyl-d3)-tetrahydrofuran-2-formamide] | 1551.15 kg·ng·h/mL/mg

Continued, values first:

Row | AUC_D | Structure (SMILES)
12 | 89.00 kg·ng·h/mL/mg | CNC(=O)[C@H]1O[C@@H](n2cnc3c(NCc4ccccc4)nc(-c4ccsc4)nc32)[C@H](O)[C@@H]1O [compound 151, (2S,3S,4R,5R)-5-(6-(benzylamino)-2-(thiophen-3-yl)-9H-purin-9-yl)-3,4-dihydroxyl-N-methyltetrahydrofuran-2-carboxamide]
13 | 168.00 kg·ng·h/mL/mg | [2H]C([2H])([2H])NC(=O)[C@H]1O[C@@H](n2cnc3c(NCc4ccccc4)nc(-c4cnc(C)c(C)c4)nc32)[C@H](O)[C@@H]1O [compound 17, (2S,3S,4R,5R)-5-(6-(benzylamino)-2-(5,6-dimethylpyridin-3-yl)-9/-purin-9-yl)-3,4-dihydroxyl-N-(methyl-d3)-tetrahydrofuran-2-formamide]
14 | 347.00 kg·ng·h/mL/mg | CNC(=O)[C@H]1O[C@@H](n2cnc3c(NCc4ccccc4)nc(-c4cncc(C)c4)nc32)[C@H](O)[C@@H]1O [compound 118, (2S,3S,4R,5R)-5-(6-(benzylamino)-2-(5-methylpyridin-3-yl)-9H-purin-9-yl)-3,4-dihydroxyl-N-methyltetrahydrofuran-2-carboxamide]
15 | 175.00 kg·ng·h/mL/mg | [2H]C([2H])([2H])NC(=O)[C@H]1O[C@@H](n2cnc3c(NCCC)nc(-c4cncc(Cl)c4)nc32)[C@H](O)[C@@H]1O [compound 285, (2S,3S,4R,5R)-5-(2-(5-chloropyridin-3-yl)-6-(propylamino)-9H-purin-9-yl)-3,4-dihydroxyl-N-(methyl-d3)-tetrahydrofuran-2-carboxamide]
16 | 1347.60 kg·ng·h/mL/mg | CNC(=O)[C@H]1O[C@@H](n2cnc3c(NCc4cccc(Cl)c4)nc(-c4cncc(Cl)c4)nc32)[C@H](O)[C@@H]1O [compound 209, (2S,3S,4R,5R)-5-(6-((3-chlorobenzyl))amino-2-(5-chloropyridin-3-yl)-9H-purin-9-yl)-3,4-dihydroxyl-N-methyltetrahydrofuran-2-carboxamide]
17 | 80.00 kg·ng·h/mL/mg | CNC(=O)[C@H]1O[C@@H](n2cnc3c(NCc4ccccc4)nc(-c4ccc(F)c(F)c4)nc32)[C@H](O)[C@@H]1O [compound 143, (2S,3S,4R,5R)-5-(6-(benzylamino)-2-(3,4-difluorophenyl)-9H-purin-9-yl)-3,4-dihydroxyl-N-methyltetrahydrofuran-2-carboxamide]
18 | 578.00 kg·ng·h/mL/mg | [2H]C([2H])([2H])NC(=O)[C@H]1O[C@@H](n2cnc3c(NCc4ccccc4)nc(-c4cncc(CC)c4)nc32)[C@H](O)[C@@H]1O [compound 34, (2S,3S,4R,5R)-5-(6-(benzylamino)-2-(5-ethylpyridin-3-yl)-9H-purin-9-yl)-3,4-dihydroxyl-N-(methyl-d3)-tetrahydrofuran-2-formamide]
19 | 276.50 kg·ng·h/mL/mg | CNC(=O)[C@H]1O[C@@H](n2cnc3c(NCc4ccccc4)nc(-c4cccnc4)nc32)[C@H](O)[C@@H]1O [compound 110, (2S,3S,4R,5R)-5-(6-(benzylamino)-2-(pyridin-3-yl)-9H-purin-9-yl)-3,4-dihydroxyl-N-methyltetrahydrofuran-2-carboxamide]
20 | 97.03 kg·ng·h/mL/mg | CNC(=O)[C@H]1O[C@@H](n2cnc3c(NCc4ccc(F)c(F)c4)nc(-c4cncc(Cl)c4)nc32)[C@H](O)[C@@H]1O [compound 322, (2S,3S,4R,5R)-5-(2-(5-chloropyridin-3-yl)-6-((3,4-difluorobenzyl)amino)-9H-purin-9-yl)-3,4-dihydroxyl-N-methyltetrahydrofuran-2-carboxamide]
21 | 115.00 kg·ng·h/mL/mg | [2H]C([2H])([2H])NC(=O)[C@H]1O[C@@H](n2cnc3c(NC([2H])([2H])[2H])nc(-c4ccoc4)nc32)[C@H](O)[C@@H]1O [compound 97, (2S,3S,4R,5R)-5-(2-(furan-3-yl)-6-((methyl-d3)amino)-9H-purin-9-yl)-3,4-dihydroxyl-N-(methyl-d)tetrahydrofuran-2-carboxamide]
22 | 602.00 kg·ng·h/mL/mg | CCOc1cncc(-c2nc(NCc3ccccc3)c3ncn([C@@H]4O[C@H](C(=O)NC)[C@@H](O)[C@H]4O)c3n2)c1 [compound 158, (2S,3S,4R,5R)-5-(6-(benzylamino)-2-(5-ethoxypyridin-3-yl)-9H-purin-9-yl)-3,4-dihydroxyl-N-methyltetrahydrofuran-2-carboxamide]
23 | 174.00 kg·ng·h/mL/mg | [2H]C([2H])([2H])NC(=O)[C@H]1O[C@@H](n2cnc3c(NCc4ccccc4)nc(-c4ccoc4)nc32)[C@H](O)[C@@H]1O [compound 11, (2S,3S,4R,5R)-5-(6-(benzylamino)-2-(furan-3-yl)-9H-purin-9-yl)-3,4-dihydroxyl-N-(methyl-d3)-tetrahydrofuran-2-formamide]
24 | 580.90 kg·ng·h/mL/mg | CNC(=O)[C@H]1O[C@@H](n2cnc3c(NCc4cccc(F)c4)nc(-c4cncc(Cl)c4)nc32)[C@H](O)[C@@H]1O [compound 210, (2S,3S,4R,5R)-5-(2-(5-chloropyridin-3-yl)-6-((3-fluorobenzyl))amino-9H-purin-9-yl)-3,4-dihydroxyl-N-methyltetrahydrofuran-2-carboxamide]
25 | 213.00 kg·ng·h/mL/mg | CCNC(=O)[C@H]1O[C@@H](n2cnc3c(NC)nc(-c4ccoc4)nc32)[C@H](O)[C@@H]1O [compound 74, (2S,3S,4R,5R)-N-ethyl-5-(2-(furan-3-yl)-6-(methylamino)-9H-purin-9-yl)-3,4-dihydroxyltetrahydrofuran-2-carboxamide]
26 | 74.00 kg·ng·h/mL/mg | [2H]C([2H])([2H])NC(=O)[C@H]1O[C@@H](n2cnc3c(NC(C)C)nc(-c4cncc(Cl)c4)nc32)[C@H](O)[C@@H]1O [compound 319, (2S,3S,4R,5R)-5-(2-(5-chloropyridin-3-yl)-6-(isopropylamino)-9H-purin-9-yl)-3,4-dihydroxyl-N-(methyl-d3)tetrahydrofuran-2-carboxamide]
